From patent publication US8586552B2, “4,6-substituted 2,5-dideoxystreptamine aminoglycoside antibiotics” (SelectX Pharmaceuticals, Inc., priority 2012, dated 2013)
Converted amounts (≈) assume the structure as drawn.

Experiments:
Format in all cases: cell-based
[1] = tested on: Escherichia coli (Eco, ECWT, ATCC #25922); assay: MIC against Escherichia coli reference strain ECWT; settings: for MIC: ATCC25922
Source text: (§1) For evaluation of efficacy, we assembled panels of representative gram-negative pathogens, including Pseudomonas aeruginosa (Pae, PAWT, ATCC #27853), Klebsiella pneumoniae (Kpn, KPWT, ATCC #700603), Acinetobacter baumannii (Aba, ABWT, ATCC #BAA-747) and Escherichia coli (Eco, ECWT, ATCC #25922). These reference strains are useful indicator organisms to characterize compound activity against bacteria from a pathogenic genus in the absence of multiple resistance mechanisms. Two strains (PAWT and ECWT) are reference strains cited within the Clinical and Laboratory Standards Institute (CLSI) Standards for susceptibility testing by Minimum Inhibitory Concentration (MIC) (SXPS2) and are well suited for quality control. ABWT and ECWT are widely susceptible to aminoglycoside antibiotics, whereas PAWT and KPWT harbor a single aminoglycoside-modifying enzyme (AGME) that targets 4,6-substituted-2-deoxystreptamine AGs.

[2] = tested on: Pseudomonas aeruginosa PR3 (high-level, efflux-mediated, pan-aminoglycoside resistance); assay: MIC against Pseudomonas aeruginosa clinical isolate PR3; settings: for MIC PR3: Pseudomonas aeruginosa resistant strain PR3; for MIC: Pseudomonas aeruginosa, read-out: MIC PR3
Source text: (§2) Pseudomonas aeruginosa is a prominent nosocomial pathogen. In addition to intrinsic antibiotic resistance to several antibiotics, Pseudomonas has acquired multiple additional mechanisms of resistance. As a result, therapeutic options for the treatment of infections caused by Pseudomonas aeruginosa are limited. We acquired clinical isolates of Pseudomonas aeruginosa (Micromyx LLC, Kalamazoo, Mich.), and used this panel to test compounds for Pseudomonicidal activity. […] For each strain and antibiotic, the mechanism(s) of resistance was inferred from the resistance profile. The presence of specific AGMEs was confirmed by colony PCR.

[3] = tested on: Klebsiella pneumoniae (Kpn, KPWT, ATCC #700603); assay: MIC against Klebsiella pneumoniae reference strain KPWT; settings: Klebsiella pneumoniae KPWT, Table 2; for MIC: ATCC700603
Source text: as §1, with “These reference strains are useful indicator organisms to characterize compound activity against bacteria from a pathogenic genus in the absence of multiple resistance mechanisms.” left out, “AGs. […]” for “AGs.”

[4] = tested on: Klebsiella pneumoniae screening panel KPWT, KR1, KR2, KR3; assay: Klebsiella pneumoniae screening panel (KPWT, KR1, KR2, KR3), reference AGs
Source text: Klebsiella pneumoniae (Kpn) and Escherichia coli (Eco) are gram-negative (like Pae), enteric pathogens with increasing clinical relevance. Many clinical isolates of Kpn and Eco harbor extended-spectrum beta-lactamases and are no longer sensitive to most beta-lactam antibiotics. We acquired clinical isolates of Klebsiella pneumoniae and Escherichia coli (Micromyx LLC, Kalamazoo, Mich.) and used this panel to test compounds for anti-enteric activity.

[5] = tested on: Pseudomonas aeruginosa PR1 (clinical isolate with intermediate aminoglycoside resistance); assay: MIC against Pseudomonas aeruginosa clinical isolate PR1; settings: Pseudomonas aeruginosa resistant strain PR1
Source text: as §2

[6] = tested on: Pseudomonas aeruginosa (Pae, PAWT, ATCC #27853); assay: MIC against Pseudomonas aeruginosa reference strain PAWT; settings: Pseudomonas aeruginosa wild type PAWT; for MIC: ATCC27853
Source text: as §1, with “AGs. […]” for “AGs.”

[7] = tested on: Pseudomonas aeruginosa PR2 (clinical isolate with intermediate aminoglycoside resistance); assay: MIC against Pseudomonas aeruginosa clinical isolate PR2; settings: Pseudomonas aeruginosa resistant strain PR2
Source text: as §2

[8] = tested on: Acinetobacter baumannii (Aba, ABWT, ATCC #BAA-747); assay: MIC against Acinetobacter baumannii reference strain ABWT; settings: for MIC: ATCCBAA747
Source text: as §1, with “AGs. […]” for “AGs.”

[9] = tested on: more than fifty resistant contemporary clinical isolates of Pseudomonas aeruginosa; assay: MIC90 against panel of resistant clinical isolates of Pseudomonas aeruginosa; settings: Pseudomonas aeruginosa
Source text: To assess this, a panel of more than fifty resistant contemporary clinical isolates of Pseudomonas aeruginosa were obtained from multiple sources including JMI Laboratories (North Liberty, Iowa), Pfizer (Groton, Conn.), Micromyx (Kalamazoo, Mich.), Dr. J. Chow (Wayne State University). Strains were characterized for resistance to a wide variety of classes of antibiotics including aminoglycosides, β-lactams and fluoroquinolones. […] This reflects the difficulty in treating clinical Pseudomonas aeruginosa infections. […] Using this stringent panel, we tested a subset of compounds of the invention (Table 4).

[10] = tested on: fifty resistant contemporary clinical isolates of Klebsiella pneumoniae; assay: MIC90 against panel of resistant clinical isolates of Klebsiella pneumoniae; settings: Klebsiella pneumoniae; fifty resistant contemporary clinical isolates, reference antibiotics
Source text: Using this stringent Klebsiella pneumoniae panel, we tested a subset of compounds of the invention.

| Molecule | MIC ECWT [1] | MIC PR3 [2] | MIC KPWT [3] | MIC PR1 [5] | MIC PAWT [6] | MIC PR2 [7] | MIC ABWT [8] | MIC90 [9] | MIC90 [10] | other results |
| --- | --- | --- | --- | --- | --- | --- | --- | --- | --- | --- |
| NC[C@H]1O[C@H](O[C@H]2[C@H](O)[C@@H](O[C@H]3O[C@H](CO)[C@@H](O)[C@H](N)[C@H]3O)[C@H](N)C[C@@H]2N)[C@H](O)[C@@H](O)[C@@H]1O [kanamycin A] | 4 µg/mL (≈ 8.26 µM) | >64 µg/mL | 32 µg/mL (≈ 66 µM) | >64 µg/mL | >64 µg/mL | >64 µg/mL | 1 µg/mL (≈ 2.06 µM) | – | – | potency against Klebsiella pneumoniae test panel [4]: limited to no activity |
| NC[C@H]1O[C@H](O[C@H]2[C@H](O)[C@@H](O[C@H]3O[C@H](CO)[C@@H](O)[C@H](N)[C@H]3O)[C@H](N)C[C@@H]2N)[C@H](N)[C@@H](O)[C@@H]1O [kanamycin B] | 2 µg/mL (≈ 4.14 µM) | >64 µg/mL | 16 µg/mL (≈ 33.1 µM) | 64 µg/mL (≈ 132 µM) | 16 µg/mL (≈ 33.1 µM) | >64 µg/mL | 0.5 to 1 µg/mL | – | – | potency against Klebsiella pneumoniae test panel [4]: limited to no activity |
| C[C@H]1COc2c(N3CCN(C)CC3)c(F)cc3c(=O)c(C(=O)O)cn1c23 [levofloxacin] | – | – | – | – | – | – | – | ≥ 64 µg/mL | ≥ 64 µg/mL | – |
| C[C@@H](O)[C@H]1C(=O)N2C(C(=O)O)=C(S[C@@H]3CN[C@H](C(=O)N(C)C)C3)[C@H](C)[C@H]12 [meropenem] | – | – | – | – | – | – | – | ≥ 64 µg/mL | ≥ 64 µg/mL | – |
| NC[C@@H]1O[C@H](O[C@H]2[C@@H](O)[C@H](O[C@@H]3[C@@H](O)[C@H](N)C[C@H](N)[C@H]3O[C@H]3O[C@H](CN)[C@@H](O)[C@H](O)[C@H]3N)O[C@@H]2CO)[C@H](N)[C@@H](O)[C@@H]1O [neomycin] | 1 µg/mL (≈ 1.63 µM) | >64 µg/mL | 4 to 8 µg/mL | 32 µg/mL (≈ 52.1 µM) | 32 µg/mL (≈ 52.1 µM) | 8 to 16 µg/mL | 0.25 to 0.5 µg/mL | – | – | – |
| CCN1CCN(C(=O)N[C@@H](C(=O)N[C@@H]2C(=O)N3[C@@H]2SC(C)(C)[C@@H]3C(=O)O)c2ccccc2)C(=O)C1=O [piperacillin] | – | – | – | – | – | – | – | ≥ 64 µg/mL | ≥ 64 µg/mL | – |
| CN[C@@H]1[C@@H](O)[C@@H](O[C@@H]2[C@@H](O)[C@H](O[C@H]3OC(CN)=CC[C@H]3N)[C@@H](N)C[C@H]2N)OC[C@]1(C)O [sisomycin] | – | >64 µg/mL | 1 to 2 µg/mL | 4 µg/mL (≈ 8.94 µM) | 0.25 to 0.5 µg/mL | >64 µg/mL | – | – | – | – |
| CN[C@@H]1[C@H](O)[C@H](NC)[C@H]2O[C@@]3(O)C(=O)C[C@@H](C)O[C@H]3O[C@@H]2[C@H]1O [spectinomycin] | – | – | – | – | – | – | – | – | – | MIC [1]: 8 to 16 µg/mL (≈ 24.1 to 48.1 µM); MIC [2]: > 64 µg/mL; MIC [3]: 64 µg/mL (≈ 193 µM); MIC [5]: > 64 µg/mL; MIC [6]: > 64 µg/mL; MIC [7]: > 64 µg/mL; MIC [8]: 16 µg/mL (≈ 48.1 µM) |
| [H]/N=C(/N)N[C@H]1[C@H](O)[C@@H](O)[C@H](O[C@@H]2O[C@@H](C)[C@](O)(C=O)[C@H]2O[C@@H]2O[C@@H](CO)[C@H](O)[C@@H](O)[C@@H]2NC)[C@@H](N/C(N)=N\[H])[C@@H]1O [streptomycin] | – | – | – | – | – | – | – | – | – | MIC [1]: 4 µg/mL (≈ 6.88 µM); MIC [3]: 1 to 2 µg/mL (≈ 1.72 to 3.44 µM); MIC [5]: 64 µg/mL (≈ 110 µM); MIC [6]: 16 µg/mL (≈ 27.5 µM); MIC [7]: 16 µg/mL (≈ 27.5 µM); MIC [8]: 2 to 4 µg/mL (≈ 3.44 to 6.88 µM) |
| NC[C@H]1O[C@H](O[C@H]2[C@H](O)[C@@H](O[C@H]3O[C@H](CO)[C@@H](O)[C@H](N)[C@H]3O)[C@H](N)C[C@@H]2N)[C@H](N)C[C@@H]1O [tobramycin] | – | – | – | – | – | – | – | ≥ 64 µg/mL | ≥ 64 µg/mL | MIC [1]: 1 µg/mL (≈ 2.14 µM); MIC [2]: > 64 µg/mL; MIC [3]: 8 µg/mL (≈ 17.1 µM); MIC [5]: 2 µg/mL (≈ 4.28 µM); MIC [6]: 0.25 µg/mL (≈ 0.535 µM); MIC [7]: > 64 µg/mL; MIC [8]: 0.25 µg/mL (≈ 0.535 µM) |
| gentamycin | 0.5 µg/mL | >64 µg/mL | 8 µg/mL | 8 µg/mL | 1 µg/mL | >64 µg/mL | 0.25 to 0.5 µg/mL | – | – | – |
